Reference: ChEMBL document CHEMBL4765339, “Design, synthesis, and biological evaluation of 4-substituted-3,4-dihydrobenzo[h]quinoline-2,5,6(1H)-triones as NQO1-directed antitumor agents” (Eur J Med Chem, 2020)
The source made the active and inactive calls. No cut-off for these calls is given here.

Assays:
HepG2 [1] = assay: Antitumor activity against human HepG2 cells xenografted in athymic nude mouse assessed as inhibition of tumor growth at 20 mg/kg, iv administered once every 2 days for 19 days by caliper analysis relative to control; format: functional; details: 456 h, time 19 day
[2] = Selectivity index, ratio of GI50 for human A549 cells pretreated for 1 hr with NQO1 inhibitor, dicoumarol followed by incubation with compound for 48 hrs to GI50 for human A549 cells measured after 48 hrs by MTT assay; format: functional
HepG2 [3] = assay: Induction of apoptosis in human HepG2 cells assessed as early apoptotic cells at 2.2 uM incubated for 24 hrs in presence of dicoumarol by annexinV-FITC and PI staining based flow cytometry analysis (reference value: 2.65 %); format: functional
A549 [4] = assay: Cytotoxicity against human A549 cells assessed as reduction in cell growth pretreated for 1 hr with ROS scavenger, N-acetyl cysteine followed by incubation with compound for 48 hrs by MTT assay; format: functional
HepG2 [5] = assay: Induction of apoptosis in human HepG2 cells assessed as viable cells at 2.2 uM incubated for 24 hrs in presence of dicoumarol by annexinV-FITC and PI staining based flow cytometry analysis (reference value: 94.73 %); format: functional; details: read-out: Activity
HepG2 [6] = assay: Induction of apoptosis in human HepG2 cells assessed as necrotic cells at 1.1 uM incubated for 24 hrs by annexinV-FITC and PI staining based flow cytometry analysis (reference value: 0.35 %); format: functional
HepG2 [7] = assay: Induction of apoptosis in human HepG2 cells assessed as early apoptotic cells at 2.2 uM incubated for 24 hrs by annexinV-FITC and PI staining based flow cytometry analysis (reference value: 2.65 %); format: functional
HepG2 [8] = assay: Cytotoxicity against human HepG2 cells assessed as reduction in cell growth pretreated for 1 hr with NQO1 inhibitor, dicoumarol followed by incubation with compound for 48 hrs by MTT assay; format: functional
HepG2 [9] = assay: Induction of apoptosis in human HepG2 cells assessed as early apoptotic cells at 1.1 uM incubated for 24 hrs by annexinV-FITC and PI staining based flow cytometry analysis (reference value: 2.65 %); format: functional
[10] = Selectivity index, ratio of GI50 for human L02 cells to GI50 for human HepG2 cells measured after 48 hrs by MTT assay; format: toxicity; details: L02 cells and HepG2 cells, read-out: RatioGI50
HepG2 [11] = assay: Induction of apoptosis in human HepG2 cells assessed as viable cells at 1.1 uM incubated for 24 hrs by annexinV-FITC and PI staining based flow cytometry analysis (reference value: 94.73 %); format: functional; details: read-out: Activity
[12] = Cytotoxicity against human L02 cells assessed as reduction in cell growth incubated for 48 hrs by MTT assay; format: cell-based
HepG2 [13] = assay: Induction of apoptosis in human HepG2 cells assessed as viable cells at 2.2 uM incubated for 24 hrs by annexinV-FITC and PI staining based flow cytometry analysis (reference value: 94.73 %); format: functional; details: read-out: Activity
HepG2 [14] = assay: Antitumor activity against human HepG2 cells xenografted in athymic nude mouse assessed as inhibition of tumor growth at 10 mg/kg, iv administered once every 2 days for 19 days by caliper analysis relative to control; format: functional; details: 456 h, time 19 day
[15] = target: NAD(P)H dehydrogenase [quinone] 1 (Homo sapiens) (UniProt P15559); assay: Substrate activity at recombinant human C-terminal His-tagged NQO1 (1 to 274 residues) expressed in Escherichia coli assessed as enzyme activity by measuring oxidation of NADPH incubated for 5 mins measured every 5 sec for 1 mins by UV-visible spectrophotometry relative to beta-lapachone
[16] = Selectivity index, ratio of GI50 for human HepG2 cells pretreated for 1 hr with ROS scavenger, N-acetyl cysteine followed by incubation with compound for 48 hrs to GI50 for human HepG2 cells measured after 48 hrs by MTT assay; format: functional
MCF7 = assay: Cytotoxicity against NQO1-rich human MCF7 cells assessed as reduction in cell growth incubated for 48 hrs by MTT assay; format: functional
HepG2 [17] = assay: Antitumor activity against human HepG2 cells xenografted in athymic nude mouse assessed as inhibition of tumor growth administered intravenously once every 2 days for 19 days by caliper analysis; format: functional, cell-based; details: dose 10-20 mg/kg, time 19.0 day
HepG2 [18] = assay: Induction of apoptosis in human HepG2 cells assessed as necrotic cells at 2.2 uM incubated for 24 hrs by annexinV-FITC and PI staining based flow cytometry analysis (reference value: 0.35 %); format: functional
HepG2 [19] = assay: Induction of cell cycle arrest in human HepG2 cells assessed as increase in accumulation at S/G2 phase incubated for 24 hrs by PI staining based flow cytometry analysis; format: functional; details: dose 0.75-3 µM
HepG2 [20] = assay: Induction of ROS generation in human HepG2 cells at 5 uM incubated for 5 hrs in presence of dicoumarol by DCFH-DA staining based flow cytometry analysis; format: functional, cell-based
[21] = Toxicity in athymic nude mouse xenografted with human HepG2 cells assessed as effect on body weight at 10 to 20 mg/kg, iv administered once every 2 days for 19 days; format: organism-based; details: in vivo, 456 h, dose 10-20 mg/kg, time 19 day
A549 [22] = assay: Cytotoxicity against human A549 cells assessed as reduction in cell growth pretreated for 1 hr with NQO1 inhibitor, dicoumarol followed by incubation with compound for 48 hrs by MTT assay; format: functional
HepG2 [23] = assay: Cytotoxicity against human HepG2 cells assessed as reduction in cell growth pretreated for 1 hr with ROS scavenger, N-acetyl cysteine followed by incubation with compound for 48 hrs by MTT assay; format: functional
A549 [24] = assay: Cytotoxicity against human A549 cells assessed as reduction in cell growth incubated for 48 hrs by MTT assay; format: functional
HepG2 [25] = assay: Induction of apoptosis in human HepG2 cells assessed as late apoptotic cells at 2.2 uM incubated for 24 hrs by annexinV-FITC and PI staining based flow cytometry analysis (reference value: 2.27 %); format: functional
HepG2 [26] = assay: Induction of cell cycle arrest in human HepG2 cells assessed as accumulation at S/G2 phase at 3 uM incubated for 24 hrs by PI staining based flow cytometry analysis (reference value: 35.2 %); format: functional
HepG2 [27] = assay: Induction of apoptosis in human HepG2 cells assessed as early apoptotic cells at 4.4 uM incubated for 24 hrs by annexinV-FITC and PI staining based flow cytometry analysis (reference value: 2.65 %); format: functional
HepG2 [28] = assay: Induction of mitochondrial membrane potential loss in human HepG2 cells at 1.1 uM incubated for 48 hrs by JC-1 staining based flow cytometry analysis (reference value: 2.06 %); format: functional
HepG2 [29] = assay: Cytotoxicity against human HepG2 cells assessed as reduction in cell growth incubated for 48 hrs by MTT assay; format: functional
HepG2 [30] = assay: Induction of apoptosis in human HepG2 cells assessed as late apoptotic cells at 4.4 uM incubated for 24 hrs by annexinV-FITC and PI staining based flow cytometry analysis (reference value: 2.27 %); format: functional
[31] = Selectivity index, ratio of GI50 for human HepG2 cells pretreated for 1 hr with NQO1 inhibitor, dicoumarol followed by incubation with compound for 48 hrs to GI50 for human HepG2 cells measured after 48 hrs by MTT assay; format: functional
HepG2 [32] = assay: Induction of mitochondrial membrane potential loss in human HepG2 cells at 4.4 uM incubated for 48 hrs by JC-1 staining based flow cytometry analysis (reference value: 2.06 %); format: functional

**Q.** Which results are given for `COc1ccc(C2CC(=O)NC3=C2C(=O)C(=O)c2ccccc23)cc1O` (stereo not drawn)?
**A.** inhibition in vivo at 20 mg/kg (HepG2 [1]): 50.3%; RatioGI50 [2]: 2; Activity (HepG2 [3]): 8.28%; GI50 (A549 [4]): 5.48 µM; viability at 2.2 µM (HepG2 [5]): 81.6%; Activity (HepG2 [6]): 0.77%; Activity (HepG2 [7]): 10.85%; GI50 (HepG2 [8]): 4.93 µM; Activity (HepG2 [9]): 7.92%; selectivity ratio at 48 h [10]: 2; viability at 1.1 µM (HepG2 [11]): 82.4%; GI50 at 48 h [12]: 4.36 µM; viability at 2.2 µM (HepG2 [13]): 76%; inhibition in vivo at 10 mg/kg (HepG2 [14]): 27.2%; fold change (FC) [15]: > 2; RatioGI50 [16]: 2; GI50 (MCF7): 3.06 µM; TGI (HepG2 [17]): Dose-dependent effect; Activity (HepG2 [18]): 0.93%; Activity (HepG2 [19]): Dose-dependent effect; Activity (HepG2 [20]): inactive; Activity [21]: Non-Toxic; GI50 (A549 [22]): 5.3 µM; GI50 (HepG2 [23]): 5.65 µM; GI50 (A549 [24]): 3.13 µM; Activity (HepG2 [25]): 12.2%; Activity (HepG2 [26]): 41.4%; Activity (HepG2 [27]): 14.96%; Activity (HepG2 [28]): 7.42%; GI50 (HepG2 [29]): 2.23 µM; Activity (HepG2 [30]): 17.46%; RatioGI50 [31]: 2; Activity (HepG2 [32]): 18.12%
